pIC50: −log10 of the molar value.

The target of the assay is NACHT, LRR and PYD domains-containing protein 3 (Homo sapiens, UniProt Q96P20). Description: Evaluation of NLRP3 Inflammasome Inhibitory Activity Assay. On the procedure: The NLRP3 inflammasome inhibitory activity of test compounds were evaluated CM the basis of the inhibitory activity of the IL-1β, production in THP1-Null cells (Product Number: thp-null, InvivoGen). […] A solution containing a test compound (20 μL/well) was added to test compound-setting wells. […] The supernatant of the culture was cryonically stored (set at −20° C.) until measurement of IL-1β.
NACHT, LRR and PYD domains-containing protein 3, sequence (Q96P20 whole entry, the tested form may be a part): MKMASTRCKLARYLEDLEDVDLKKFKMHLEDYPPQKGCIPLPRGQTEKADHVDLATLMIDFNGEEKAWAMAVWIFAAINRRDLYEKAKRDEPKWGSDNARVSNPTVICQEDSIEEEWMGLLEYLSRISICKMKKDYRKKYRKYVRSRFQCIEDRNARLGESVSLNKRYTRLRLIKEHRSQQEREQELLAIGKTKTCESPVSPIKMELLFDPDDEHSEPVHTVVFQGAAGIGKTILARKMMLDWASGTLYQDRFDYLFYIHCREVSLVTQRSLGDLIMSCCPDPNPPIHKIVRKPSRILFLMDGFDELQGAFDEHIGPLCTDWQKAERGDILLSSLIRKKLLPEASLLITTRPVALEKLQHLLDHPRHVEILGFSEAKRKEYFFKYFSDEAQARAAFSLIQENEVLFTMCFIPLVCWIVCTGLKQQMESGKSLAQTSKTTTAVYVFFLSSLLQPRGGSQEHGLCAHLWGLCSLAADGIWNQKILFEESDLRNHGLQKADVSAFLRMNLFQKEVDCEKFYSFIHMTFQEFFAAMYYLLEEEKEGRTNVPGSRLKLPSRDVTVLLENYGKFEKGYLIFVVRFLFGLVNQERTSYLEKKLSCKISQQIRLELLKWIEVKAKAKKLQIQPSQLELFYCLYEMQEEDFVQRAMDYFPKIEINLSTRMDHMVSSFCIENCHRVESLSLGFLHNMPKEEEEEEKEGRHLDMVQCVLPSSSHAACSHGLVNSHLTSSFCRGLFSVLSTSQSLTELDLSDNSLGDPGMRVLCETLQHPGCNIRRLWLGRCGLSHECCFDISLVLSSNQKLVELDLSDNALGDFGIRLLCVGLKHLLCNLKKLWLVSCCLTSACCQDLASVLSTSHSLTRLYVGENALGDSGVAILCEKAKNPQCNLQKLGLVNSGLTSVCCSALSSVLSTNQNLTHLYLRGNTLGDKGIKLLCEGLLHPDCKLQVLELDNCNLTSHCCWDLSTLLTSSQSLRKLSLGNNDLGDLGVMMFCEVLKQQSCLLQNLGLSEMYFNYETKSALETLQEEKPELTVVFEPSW
For `Cc1ccc(C(F)(F)F)cc1Nc1nc(C(=O)NS(=O)(=O)N2CCOCC(F)(F)C2)co1` [US20230399319, Example 2-190], the pIC50 was 7.77.

`CC(C)c1nn(C(C)C)cc1Nc1nc(C(=O)NS(=O)(=O)N2CCCC(C#N)CC2)co1` (configuration not stated) [US20230399319, Example 2-191] had a pIC50 of 6.46.

The molecule `Cc1cn(C(C)C)nc1Nc1nc(C(=O)NS(=O)(=O)N2CCCC(C#N)CC2)co1` (configuration not stated) [US20230399319, Example 2-192] gave a negative logarithm of the IC50 (pIC50) of 6.80. This pIC50 is 0.34 log units higher than that of the molecule before.

`COC1CCN(S(=O)(=O)NC(=O)c2coc(Nc3cc(C(F)(F)F)ccc3C)n2)C1` (configuration not stated) [US20230399319, Example 2-199] gave a pIC50 of 6.80.

The molecule `CCC(C)n1cc(C)c(Nc2nc(C(=O)NS(=O)(=O)N3CCCOCC3)co2)n1` (configuration not stated) [US20230399319, Example 2-200] gave a pIC50 of 5.96. This pIC50 is 0.84 log units lower than that of the molecule before.

For the molecule `Cc1ccc(C(F)(F)F)cc1Nc1nc(C(=O)NS(=O)(=O)N2C[C@H]3COC[C@@H]3C2)co1` [US20230399319, Example 2-201], the pIC50 is 6.49.

`CC(C)c1cc(Nc2nc(C(=O)NS(=O)(=O)N3CCCOCC3)co2)n(C(C)C)n1` [US20230399319, Example 2-202] gave a negative logarithm of the IC50 (pIC50) of 5.66.

`Cc1ccc(C(F)(F)F)cc1Nc1nc(C(=O)NS(=O)(=O)N(C)CC2CCCCC2)co1` [US20230399319, Example 2-206]: the negative-log IC50 (pIC50) is 6.82.

`Cc1ccc(C(F)(F)F)cc1Nc1nc(C(=O)NS(=O)(=O)N(Cc2ccccc2)C(C)C)co1` [US20230399319, Example 2-207] had a negative logarithm of the IC50 (pIC50) of 6.74. The pIC50 values of the last two molecules are within 0.2 log units of each other.

As for `Cc1ccc(C(F)(F)F)cc1Nc1nc(C(=O)NS(=O)(=O)N(C)CC2CCCC2)co1` [US20230399319, Example 2-208], the negative logarithm of the IC50 (pIC50) was 7.05.

Take `Cc1cn(C(C)C)nc1Nc1nc(C(=O)NS(=O)(=O)N2CCOCC(F)(F)C2)co1` [US20230399319, Example 2-212]: the pIC50 is 6.55.

The molecule `Cc1ccc(C(F)(F)F)cc1Nc1nc(C(=O)NS(=O)(=O)N2CCC(C#N)C2)co1` (configuration not stated) [US20230399319, Example 2-221] gave a negative-log IC50 (pIC50) of 6.68.

In turn, `CCCC1CCCN(S(=O)(=O)NC(=O)c2coc(Nc3cc(C(F)(F)F)ccc3C)n2)CC1` (configuration not stated) [US20230399319, Example 2-233] gave a negative logarithm of the IC50 (pIC50) of 6.32.

As for `Cc1ccc(C(F)(F)F)cc1Nc1nc(C(=O)NS(=O)(=O)N2CCCC(F)(F)CC2)co1` [US20230399319, Example 2-234], the pIC50 was 7.30.

In turn, `COCCCN(C)S(=O)(=O)NC(=O)c1coc(Nc2cc(C(F)(F)F)ccc2C)n1` [US20230399319, Example 2-235] showed a negative-log IC50 (pIC50) of 7.03.

The molecule `Cc1ccc(C(F)(F)F)cc1Nc1nc(C(=O)NS(=O)(=O)N(C)Cc2cnccn2)co1` [US20230399319, Example 2-236] had a negative-log IC50 (pIC50) of 7.00.

Regarding `Cc1ccc(C(F)(F)F)cc1Nc1nc(C(=O)NS(=O)(=O)N2CCCS(=O)(=O)CC2)co1` [US20230399319, Example 2-239], the pIC50 is 6.77. Compared with the last molecule, the pIC50 is 0.23 log units lower.

As to `CCC1(C#N)CCCN(S(=O)(=O)NC(=O)c2coc(Nc3cc(C(F)(F)F)ccc3C)n2)CC1` (configuration not stated) [US20230399319, Example 2-240], the pIC50 was 7.51. Compared with the last molecule, the pIC50 is 0.74 log units higher.

As for `CCCCS(=O)(=O)N1CCN(S(=O)(=O)NC(=O)c2coc(Nc3cc(C(F)(F)F)ccc3C)n2)CC1` [US20230399319, Example 2-247], the pIC50 is 7.66. This pIC50 and that of the molecule before are within 0.2 log units of each other.

`CCCCC1(C#N)CCCN(S(=O)(=O)NC(=O)c2coc(Nc3cc(C(F)(F)F)ccc3C)n2)CC1` (configuration not stated) [US20230399319, Example 2-249] showed a pIC50 of 7.52.

The molecule `COCCC1(C#N)CCCN(S(=O)(=O)NC(=O)c2coc(Nc3cc(C(F)(F)F)ccc3C)n2)CC1` (configuration not stated) [US20230399319, Example 2-250] showed a pIC50 of 7.52.

In turn, `CCC(=O)N(C)C1CCCN(S(=O)(=O)NC(=O)c2coc(Nc3cc(C(F)(F)F)ccc3C)n2)C1` (configuration not stated) [US20230399319, Example 2-255] had a negative logarithm of the IC50 (pIC50) of 6.68.

As for `Cc1ccc(C(F)(F)F)cc1Nc1nc(C(=O)NS(=O)(=O)N2CCCC(C#N)(C(=O)N(C)C)CC2)co1` (configuration not stated) [US20230399319, Example 2-260], the pIC50 was 7.39. This pIC50 lies 0.71 log units higher than the previous one.

In the case of `Cc1ccc(C(F)(F)F)cc1Nc1nc(C(=O)NS(=O)(=O)N2CCCC(C#N)(C(=O)N3CCCC3)CC2)co1` (configuration not stated) [US20230399319, Example 2-261], the pIC50 is 7.55. This pIC50 and that of the molecule before are within 0.2 log units of each other.

In turn, `Cc1ccc(C(F)(F)F)cc1Nc1nc(C(=O)NS(=O)(=O)N2CCN(c3ncccn3)CC2)co1` [US20230399319, Example 2-265] gave a pIC50 of 5.96.

For `Cc1ccc(C(F)(F)F)cc1Nc1nc(C(=O)NS(=O)(=O)N2CCN(S(=O)(=O)N(C)C)CC2)co1` [US20230399319, Example 2-266], the negative logarithm of the IC50 (pIC50) was 7.30.

Take `Cc1ccc(C(F)(F)F)cc1Nc1nc(C(=O)NS(=O)(=O)N2CCN(S(=O)(=O)C(C)C)CC2)co1` [US20230399319, Example 2-267]: the pIC50 is 7.06.

`COCCN(Cc1ccccc1)S(=O)(=O)NC(=O)c1coc(Nc2cc(C(F)(F)F)ccc2C)n1` [US20230399319, Example 2-268] showed a pIC50 of 7.26.

`Cc1ccc(C(F)(F)F)cc1Nc1nc(C(=O)NS(=O)(=O)N2CCN(c3ccccc3)CC2)co1` [US20230399319, Example 2-274]: the pIC50 is 6.74. This pIC50 lies 0.52 log units lower than the previous one.

Molecule `Cc1ccc(C(F)(F)F)cc1Nc1nc(C(=O)NS(=O)(=O)N(C)CCn2cccn2)co1` [US20230399319, Example 2-279] gave a pIC50 of 7.13. This pIC50 is 0.39 log units higher than that of the molecule before.

The molecule `Cc1ccc(C(F)(F)F)cc1Nc1nc(C(=O)NS(=O)(=O)N(C)CCS(C)(=O)=O)co1` [US20230399319, Example 2-280] had a negative logarithm of the IC50 (pIC50) of 6.38.

`Cc1ccc(C(F)(F)F)cc1Nc1nc(C(=O)NS(=O)(=O)N2CCC(c3ccccc3)CC2)co1` [US20230399319, Example 2-282] gave a pIC50 of 5.60.

With `Cc1ccc(C(F)(F)F)cc1Nc1nc(C(=O)NS(=O)(=O)N2CCCC(c3ccccc3)C2)co1` (configuration not stated) [US20230399319, Example 2-284], the negative-log IC50 (pIC50) was 5.85.

In turn, `Cc1noc(C2(C)CCN(S(=O)(=O)NC(=O)c3coc(Nc4cc(C(F)(F)F)ccc4C)n3)CC2)n1` [US20230399319, Example 2-285] had a negative logarithm of the IC50 (pIC50) of 6.77.

Take `Cc1ccc(C(F)(F)F)cc1Nc1nc(C(=O)NS(=O)(=O)N(C)CCc2ccccn2)co1` [US20230399319, Example 2-287]: the pIC50 was 7.19.

`COCC(C)CN(C)S(=O)(=O)NC(=O)c1coc(Nc2cc(C(F)(F)F)ccc2C)n1` (configuration not stated) [US20230399319, Example 2-296]: the negative logarithm of the IC50 (pIC50) was 7.09.

Molecule `Cc1ccc(C)c(Nc2nc(C(=O)NS(=O)(=O)N3CCCC(C#N)CC3)co2)c1` (configuration not stated) [US20230399319, Example 2-300] had a negative logarithm of the IC50 (pIC50) of 6.72.

In the case of `CCCS(=O)(=O)C1CCCN(S(=O)(=O)NC(=O)c2coc(Nc3nn(C(C)C)cc3C)n2)CC1` (configuration not stated) [US20230399319, Example 2-302], the pIC50 is 7.44.

Consider `COC[C@@H]1CCCN1S(=O)(=O)NC(=O)c1coc(Nc2cc(C)ccc2C)n1` [US20230399319, Example 2-303], for which the negative logarithm of the IC50 (pIC50) was 6.85.

Molecule `Cc1ccc(C(F)(F)F)cc1Nc1nc(C(=O)NS(=O)(=O)N2CCOCC(n3cccn3)C2)co1` (configuration not stated) [US20230399319, Example 2-304] had a negative-log IC50 (pIC50) of 7.23.

`COCC1CCN(S(=O)(=O)NC(=O)c2coc(Nc3cc(C(F)(F)F)ccc3C)n2)C1` (configuration not stated) [US20230399319, Example 2-307]: the negative logarithm of the IC50 (pIC50) is 7.16.

Take `CCCS(=O)(=O)C1CCCN(S(=O)(=O)NC(=O)c2coc(Nc3cc(C)ccc3C(C)C)n2)CC1` (configuration not stated) [US20230399319, Example 2-311]: the negative-log IC50 (pIC50) is 7.74.

`Cc1ccc(C(F)(F)F)cc1Nc1nc(C(=O)NS(=O)(=O)N2CCCN(c3ncccn3)[C@H](C)C2)co1` [US20230399319, Example 2-313] showed a pIC50 of 7.66.

`CCOC[C@@H]1CCCN1S(=O)(=O)NC(=O)c1coc(Nc2cc(C)ccc2C)n1` [US20230399319, Example 2-314] had a pIC50 of 6.68.

Regarding `CCCS(=O)(=O)C1CCCN(S(=O)(=O)NC(=O)c2coc(Nc3nc(C(F)(F)F)ccc3C(C)C)n2)CC1` (configuration not stated) [US20230399319, Example 2-315], the negative-log IC50 (pIC50) is 7.07.

In the case of `CCCS(=O)(=O)C1CCCN(S(=O)(=O)NC(=O)c2coc(Nc3cc(C(F)(F)F)ccc3C(C)C)n2)CC1` (configuration not stated) [US20230399319, Example 2-316], the pIC50 was 7.66.

For `Cc1ccc(C(F)(F)F)cc1Nc1nc(C(=O)NS(=O)(=O)N2CCCC(S(=O)(=O)C(C)C)CC2)co1` (configuration not stated) [US20230399319, Example 2-317], the pIC50 was 7.57.

On to `COC[C@@H]1CCCN1S(=O)(=O)NC(=O)c1coc(Nc2cc(C)ccc2C(C)C)n1` [US20230399319, Example 2-322], for which the pIC50 was 6.57.

Molecule `CCCOCC1CCN(S(=O)(=O)NC(=O)c2coc(Nc3cc(C)ccc3C)n2)CCO1` (configuration not stated) [US20230399319, Example 2-323] gave a pIC50 of 7.46.

Take `Cc1cc(Nc2nc(C(=O)NS(=O)(=O)N3CCCOCC3)co2)c(C(C)C)cc1F` [US20230399319, Example 2-334]: the negative logarithm of the IC50 (pIC50) was 7.59.

Turning to `CCOCC1CCN(S(=O)(=O)NC(=O)c2coc(Nc3cc(C)c(F)cc3C(C)C)n2)CCO1` (configuration not stated) [US20230399319, Example 2-335], the negative logarithm of the IC50 (pIC50) was 7.74.

With `Cc1cc(F)c(C(C)C)cc1Nc1nc(C(=O)NS(=O)(=O)N2CCCOCC2)co1` [US20230399319, Example 2-336], the pIC50 was 8.00.

On to `CCOCC1CCN(S(=O)(=O)NC(=O)c2coc(Nc3cc(C(C)C)c(F)cc3C)n2)CCO1` (configuration not stated) [US20230399319, Example 2-337], for which the pIC50 was 7.89.

As for `Cc1ccc(C(F)(F)F)cc1Nc1nc(C(=O)NS(=O)(=O)N(C)CCC(=O)N(C)C)co1` [US20230399319, Example 2-338], the pIC50 is 7.11.

With `Cc1cc(Nc2nc(C(=O)NS(=O)(=O)N3CCCOCC3)co2)c(C)cc1F` [US20230399319, Example 2-339], the pIC50 was 7.52. This pIC50 lies 0.41 log units higher than the previous one.

Turning to `CCOCC1CCN(S(=O)(=O)NC(=O)c2coc(Nc3cc(C)c(F)cc3C)n2)CCO1` (configuration not stated) [US20230399319, Example 2-340], the negative-log IC50 (pIC50) was 7.92.

Consider `Cc1ccc(C(C)C)cc1Nc1nc(C(=O)NS(=O)(=O)N2CCOC(CN(C)C)CC2)co1` (configuration not stated) [US20230399319, Example 2-341], for which the negative-log IC50 (pIC50) is 7.06. This pIC50 lies 0.86 log units lower than the previous one.

The values are drawn from BindingDB's records for patent US20230399319 (Japan Tobacco, 2023).
